“Also recorded” adds a separate entry of the source.

The subject of data set [1] is MCF-7 cells. Briefly: Anti-proliferation assay in a MCF-7 cell line expressing P450arom (MTT). In kind it is cell-based, human.
In data set [2] the target is T1, P450arom (Homo sapiens, UniProt P11511).
T1 sequence (P11511 1-503): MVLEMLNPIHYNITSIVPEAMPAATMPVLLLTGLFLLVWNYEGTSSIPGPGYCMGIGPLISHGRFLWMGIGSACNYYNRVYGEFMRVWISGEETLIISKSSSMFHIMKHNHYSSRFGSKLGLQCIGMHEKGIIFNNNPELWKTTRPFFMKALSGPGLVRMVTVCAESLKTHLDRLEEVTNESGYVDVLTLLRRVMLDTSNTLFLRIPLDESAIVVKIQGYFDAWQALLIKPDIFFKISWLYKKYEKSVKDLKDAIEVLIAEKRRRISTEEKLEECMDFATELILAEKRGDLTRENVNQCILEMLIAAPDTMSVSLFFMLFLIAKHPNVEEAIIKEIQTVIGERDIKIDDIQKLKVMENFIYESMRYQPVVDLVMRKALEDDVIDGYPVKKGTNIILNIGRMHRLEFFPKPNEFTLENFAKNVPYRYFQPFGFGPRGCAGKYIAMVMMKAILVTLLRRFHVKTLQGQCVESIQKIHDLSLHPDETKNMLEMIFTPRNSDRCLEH
Also on record: Crystallization and structural investigation of the full-length native P450arom; from tissue; host or cells: human term placenta (aromatase); liver (CPR, bovine or rat). Conditions: previously determined [51]; cited from earlier work.

Data set [3] has as its target T1, P450arom. Briefly: Detergent screen: P450arom enzyme activity and time stability. It is filed as biochemical. As to conditions: detergent 1-3 mM, exchanged for Em on HA column. Also noted: Crystallization and structural investigation of the full-length native P450arom; from tissue; host or cells: human term placenta (aromatase); liver (CPR, bovine or rat).
Data set [4] addresses T1, P450arom. Briefly: Absorption spectrum (Soret band) of P450arom-ligand complexes. Also noted: Crystallization and structural investigation of the full-length native P450arom; from tissue. Conditions: absorption spectrum of the P450arom complex.
For data set [5], the target named is T1, P450arom. Briefly: Inhibition of P450arom enzyme activity (3H-water release from [1β-3H, 4-14C] androstenedione, enzyme reconstituted with CPR). Also noted: Crystallization and structural investigation of the full-length native P450arom; from tissue; host or cells: human term placenta (aromatase); liver (CPR, bovine or rat). As to conditions: P450arom 20-30 mg/ml, final inhibitor 0.5-1.0 mM, crystallization protocol. It is filed as biochemical.

Data set [6] relates to Aromatase. The data set can be described thus: Assay of enzyme activity (specific activity) of purified aromatase. In kind it is biochemical, human. Conditions: in BNM after detergent exchange.
Data set [7] addresses T2, Aromatase (Homo sapiens, UniProt P11511).
T2 construct: Crystallization and structural investigation of the full-length native P450arom; from tissue; host or cells: human term placenta (aromatase); liver (CPR, bovine or rat)
T2 sequence (P11511 1-503): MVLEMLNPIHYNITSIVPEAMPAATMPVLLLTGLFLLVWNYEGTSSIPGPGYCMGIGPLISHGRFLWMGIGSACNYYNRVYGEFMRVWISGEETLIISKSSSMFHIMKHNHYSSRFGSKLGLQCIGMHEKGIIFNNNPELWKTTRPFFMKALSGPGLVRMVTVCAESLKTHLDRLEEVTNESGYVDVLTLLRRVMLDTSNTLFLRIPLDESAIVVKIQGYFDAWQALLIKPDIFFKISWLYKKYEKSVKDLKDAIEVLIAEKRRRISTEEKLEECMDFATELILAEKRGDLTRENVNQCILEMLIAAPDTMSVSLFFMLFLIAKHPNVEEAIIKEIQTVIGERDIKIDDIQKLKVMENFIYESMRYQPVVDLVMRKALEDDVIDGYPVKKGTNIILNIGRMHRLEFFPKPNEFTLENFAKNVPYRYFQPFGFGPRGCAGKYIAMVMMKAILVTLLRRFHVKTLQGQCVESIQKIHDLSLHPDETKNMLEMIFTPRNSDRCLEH
The description is as above. In kind it is biochemical.

For the molecule 4-hydroxytamoxifen, the “A-stimulated growth of the MCF-7 cells” value in data set [1] (androstenedione (A) stimulated) is “decreased”.
Regarding `CCCCCCCCCCCCO[C@@H]1O[C@H](CO)[C@@H](O[C@H]2O[C@H](CO)[C@@H](O)[C@H](O)[C@H]2O)[C@H](O)[C@H]1O` [BDM, n-dodecyl-β-D-maltopyranoside], the “effect of detergent on P450arom activity” value in data set [2] was “maintained P450arom activity for weeks at 4 °C”.
Regarding `CCCCCCCCCO[C@@H]1O[C@H](CO)[C@@H](O[C@H]2O[C@H](CO)[C@@H](O)[C@H](O)[C@H]2O)[C@H](O)[C@H]1O` [BNM, n-nonyl-β-D-maltopyranoside], in data set [3], the “effect of detergent on enzyme activity and time stability” value is “maintained enzyme activity and time stability at least as well as BDM; also recorded: maintained the full P450arom activity”.
Take `CCCCCCCCO[C@@H]1O[C@H](CO)[C@@H](O)[C@H](O)[C@H]1O` [BOG, n-octyl-β-D-glucopyranoside]: the “effect of detergent on P450arom activity” value in data set [2] is reported as “destroy P450arom activity rapidly”.
For the molecule `CCCCCCCCO[C@@H]1O[C@H](CO)[C@@H](O[C@H]2O[C@H](CO)[C@@H](O)[C@H](O)[C@H]2O)[C@H](O)[C@H]1O` [BOM, n-octyl-β-D-maltopyranoside], the “effect of detergent on enzyme activity and time stability” value in data set [3] was “maintained enzyme activity and time stability at least as well as BDM”.
In data set [4], `CC(C)(C#N)c1cc(Cn2cncn2)cc(C(C)(C)C#N)c1` [anastrozole] registered a Soret band of 421 nm.
As to `C[C@]12CCC(=O)C=C1CC[C@@H]1[C@@H]2CC[C@]2(C)C(=O)CC[C@@H]12` [androstenedione], in data set [4], the Soret band was 394 nm. In addition, the “growth of the MCF-7 cells” value in data set [1] (substrate steroid alone) was “stimulates the growth of the MCF-7 cells in a concentration-dependent manner”.
In turn, `N#Cc1ccc(C(c2ccc(C#N)cc2)n2cncn2)cc1` [letrozole] returned a Soret band in data set [4] of 421 nm. Moreover, the DHEA-stimulated cell growth result in data set [1] (DHEA stimulated MCF-7 cells) is reported as “inhibits the growth of DHEA-stimulated cell growth”. Also, in data set [5], the “inhibition of P450arom” value was roughly 100%.

B1: Del38arom: amino-terminal trans-membrane domain deleted P450arom, bacterial expression clone (protein, UniProt P11511 39-503, looked up, fragment)
chain: WNYEGTSSIPGPGYCMGIGPLISHGRFLWMGIGSACNYYNRVYGEFMRVWISGEETLIISKSSSMFHIMKHNHYSSRFGSKLGLQCIGMHEKGIIFNNNPELWKTTRPFFMKALSGPGLVRMVTVCAESLKTHLDRLEEVTNESGYVDVLTLLRRVMLDTSNTLFLRIPLDESAIVVKIQGYFDAWQALLIKPDIFFKISWLYKKYEKSVKDLKDAIEVLIAEKRRRISTEEKLEECMDFATELILAEKRGDLTRENVNQCILEMLIAAPDTMSVSLFFMLFLIAKHPNVEEAIIKEIQTVIGERDIKIDDIQKLKVMENFIYESMRYQPVVDLVMRKALEDDVIDGYPVKKGTNIILNIGRMHRLEFFPKPNEFTLENFAKNVPYRYFQPFGFGPRGCAGKYIAMVMMKAILVTLLRRFHVKTLQGQCVESIQKIHDLSLHPDETKNMLEMIFTPRNSDRCLEH
B1: the specific activity in data set [6] is less than 1 nmol/min/mg.

B2: Aromatase: human cytochrome P450 aromatase purified from term placenta, SEQ ID NO:1 (protein, listed as Homo sapiens)
chain: MVLEMLNPIHYNITSIVPEAMPAATMPVLLLTGLFLLVWNYEGTSSIPGPGYCMGIGPLISHGRFLWMGIGSACNYYNRVYGEFMRVWISGEETLIISKSSSMFHIMKHNHYSSRFGSKLGLQCIGMHEKGIIFNNNPELWKTTRPFFMKALSGPGLVRMVTVCAESLKTHLDRLEEVTNESGYVDVLTLLRRVMLDTSNTLFLRIPLDESAIVVKIQGYFDAWQALLIKPDIFFKISWLYKKYEKSVKDLKDAIEVLIAEKRRRISTEEKLEECMDFATELILAEKRGDLTRENVNQCILEMLIAAPDTMSVSLFFMLFLIAKHPNVEEAIIKEIQTVIGERDIKIDDIQKLKVMENFIYESMRYQPVVDLVMRKALEDDVIDGYPVKKGTNIILNIGRMHRLEFFPKPNEFTLENFAKNVPYRYFQPFGFGPRGCAGKYIAMVMMKAILVTLLRRFHVKTLQGQCVESIQKIHDLSLHPDETKNMLEMIFTPRNSDRCLEH
As to B2, in data set [7] (calculated), the turnover number was roughly 6 min⁻¹. Further, the specific activity retained in data set [7] (in detergents BNM and BDM, 4° C. for weeks) is on record as 80-90%. For the same molecule, the “specific activity of the purified enzyme” value in data set [7] (typical / over a large number of purifications, androstenedione as substrate) lay within 20 to 100 nmol/min/mg. Further, the results for the specific activity in data set [7] (with Em as the detergent) and in data set [6] were 50 to 100 nmol/min/mg and 10 to 50 nmol/min/mg, respectively.
